Molecular target: T1, DENV-2 NS2B-NS3 protease (Dengue virus 2 Thailand/16681/84, UniProt P29990)
T1 construct: NS2BNS3 gene RT-PCR amplified from DENV-2 16681 RNA genome; AVI tag in forward primer, F2A peptide in reverse primer; in pcDNA3.1-HisC (pcDNA-DEN2_NS2BNS3), transiently expressed in HEK293T; parts of the genome polyprotein; with Serine protease subunit NS2B
Assay: cell-based

T1 sequence (P29990 1346-2093 limits assumed): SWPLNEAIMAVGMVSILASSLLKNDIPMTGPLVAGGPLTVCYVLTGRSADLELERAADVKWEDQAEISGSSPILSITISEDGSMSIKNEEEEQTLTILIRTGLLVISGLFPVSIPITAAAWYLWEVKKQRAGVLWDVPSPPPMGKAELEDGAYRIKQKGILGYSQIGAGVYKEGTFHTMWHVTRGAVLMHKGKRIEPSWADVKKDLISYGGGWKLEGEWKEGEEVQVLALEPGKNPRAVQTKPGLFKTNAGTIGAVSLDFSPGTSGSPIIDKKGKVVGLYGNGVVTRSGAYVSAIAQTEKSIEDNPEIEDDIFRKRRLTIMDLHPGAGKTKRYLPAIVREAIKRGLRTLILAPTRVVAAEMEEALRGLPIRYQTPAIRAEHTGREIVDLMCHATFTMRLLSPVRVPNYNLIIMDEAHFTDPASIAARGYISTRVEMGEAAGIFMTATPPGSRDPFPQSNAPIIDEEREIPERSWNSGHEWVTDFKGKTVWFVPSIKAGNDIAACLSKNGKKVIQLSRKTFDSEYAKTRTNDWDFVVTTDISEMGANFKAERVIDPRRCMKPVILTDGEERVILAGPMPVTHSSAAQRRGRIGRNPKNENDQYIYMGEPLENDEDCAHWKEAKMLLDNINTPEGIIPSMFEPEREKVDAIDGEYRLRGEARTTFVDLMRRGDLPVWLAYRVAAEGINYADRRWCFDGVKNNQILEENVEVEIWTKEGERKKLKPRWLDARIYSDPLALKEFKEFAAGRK

## c1cnc2cc3c(cc2n1)C1CNCC3C1 [varenicline]
  IC50: > 20 µM
